{"source": "patent US20110135634A1", "about": "“METHODS OF INHIBITING INFECTION BY DIVERSE SUBTYPES OF DRUG-RESISTANT HIV-1” (priority 2007, published 2011)", "key": {"[1]": {"system": "reporter viruses pseudotyped with HIV-1JR-FL envelope (U87-CD4-CCR5 cells)", "experiment": "microbe, parasite or virus in culture", "type": "cell-based"}, "[2]": {"system": "reporter viruses pseudotyped with HIV-1SF162 envelope (U87-CD4-CCR5 cells)", "experiment": "HIV-1 pseudovirus assay, SF162 envelope", "type": "cell-based", "details": "Human immunodeficiency virus 1, U87/CD4/CCR5", "text": "A self-inactivating (SIN) vector was derived from the pNL4-3ΔEnv-luciferase vector (Dragic et al. 1996) by deleting 507 basepairs in the U3 region of the 3′ long terminal repeat (LTR) so as to remove the TATA box and transcription factor binding sites. The human cytomegalovirus promoter was inserted upstream of the luciferase (luc) gene to enable expression of luciferase following integration.\nReporter viruses pseudotyped with HIV-1JR-FL or HIV-1SF162 envelopes were generated by cotransfection of 293T cells with the SIN vector and the appropriate pcDNA env-expressing vector as previously described (Dragic et al. 1996). […] Cultures were incubated for 72 h at 37° C. in DMEM containing 10% fetal bovine serum, […] puromycin, 0.3 mg/mL geneticin, antibiotics, and 0.5% DMSO. Luciferase activity (relative light units or RLU) was measured using. BrightGlo reagent (Promega, Madison, Wis.) according to the manufacturer's instructions.\nExperimental design and data analysis were based on the combination index (CI) method (Chou et al. 1991; Chou et al. 1984). […] The mutually exclusive CI formula was used for combinations of CCR5 inhibitors, while the mutually non-exclusive formula was utilized for combinations of inhibitors to distinct targets (Chou et al. 1991). Each test was conducted 4-12 times. Synergy, additivity and antagonism are indicated by CI<1, CI=1 and CI>1, respectively."}, "[3]": {"system": "HIV-1 Env-mediated fusion (HeLa-EnvJRFL and CEM NKR-CCR5 cells)", "experiment": "RET cell-cell fusion assay, combination testing (Part II, Example 1)", "protocol": "Serial dilutions of small molecules were conducted in DMSO. Subsequent dilutions were conducted in medium to achieve a fmal DMSO concentration in the assay of 0.5%. Peptides and mAbs were diluted in PBS in the absence of DMSO.\nBriefly, fluorescein octadecyl ester (F18; Molecular Probes, Eugene, Oreg.; 5 mg/ml in ethanol), was diluted 1:800 in DMEM labeling medium (DMEM; Invitrogen, Carlsbad, Calif.) with 10% fetal bovine serum (FBS; HyClone, Logan, Utah) and adjusted to an A506 of 0.34±10%. […] Both dyes were further diluted 2-fold by addition to cells in T75-cm^2 flasks. HeLa-EnvJRFL and CEM NKR-CCR5 cells were incubated overnight in F18- and R18-containing culture medium, respectively. The following day, medium from HeLa-EnvJRFL cells was removed and 10 ml of 0.5 mM EDTA was added and incubated at 37° C. for 5 min. EDTA was removed and the flask was returned to the incubator for another 5 min followed by striking of the flask to dislodge cells. […] Suspension CEM NKR-CCR5 cells were added directly to a separate 50-ml conical centrifuge tube. […] Ten μl of each cell type (15,000 cells) were seeded into wells of a 384-well plate. Inhibitor compounds were added immediately thereafter to bring the final well volume to 40 μl, and the plates were incubated for 4 h at 37° C. Compounds were tested individually and in combination at a fixed molar ratio or mass ratio over a range of serial dilutions.\nThe “% RET” was calculated according to the following formula after subtraction of background (blank) readings:\nThe “% Inhibition” was calculated according to the following formula: […]\nIC50 values were generated for all combinations as described above. Combination Index (CI) and Dose Reduction (DR) values were calculated according to the following formulas:\nCombinations with CI<1 are determined to be synergistic, whereas combinations with CI>1 are determined to be antagonistic. […]\nIn this assay, effector cells are labeled with the F18 dye and target cells with the R18 dye. […] Drug susceptibility is measured by adding serial concentrations of drugs to target cells prior to addition of effector cells."}, "[4]": {"molecular_target": "CD4 (human) (UniProt P01730)", "experiment": "cell-based or functional assay"}, "[5]": {"molecular_target": "CCR5 (CC-chemokine receptor 5) (human) (UniProt P51681)", "experiment": "cell-based or functional assay"}, "[6]": {"details": "single administration of TAK-652 solution, healthy male volunteers; cited from earlier work"}, "[7]": {"details": "in vivo; cited from earlier work"}}}
{"compound": "Cc1nnc(C(C)C)n1C1CC2CCC(C1)N2CC[C@H](NC(=O)C1CCC(F)(F)CC1)c1ccccc1", "note": "(stereo partly drawn) [UK-427,857, reference compound]", "values": [{"measurement": "IC90", "setting": "[1]; HIV-1 envelope JRFL, 1st inhibitor alone", "value": 46, "unit": "nM"}, {"measurement": "IC50", "setting": "[1]; Human immunodeficiency virus 1, U87/CD4/CCR5", "value": 7.4, "unit": "nM"}, {"measurement": "IC50", "setting": "[2]", "value": 0.87, "unit": "nM"}, {"measurement": "IC90", "setting": "[2]", "value": 13, "unit": "nM"}, {"measurement": "Mean Dose Reduction (2D7)", "setting": "[3]; 2D7 in combination with the labelled inhibitor, 1:1 molar ratio", "value": "2.45 ± 0.12"}, {"measurement": "Mean CI", "setting": "[3]; PRO 140 in combination with the labelled inhibitor, 1:1 molar ratio, Combination Index at IC50", "value": "0.59 ± 0.04"}, {"measurement": "Mean Dose Reduction (Cpd in combination)", "setting": "[3]; labelled inhibitor in combination with 2D7, 1:1 molar ratio", "value": "5.73 ± 0.54"}]}
{"compound": "RANTES: CC-chemokine, natural peptide ligand of CCR5", "values": [{"measurement": "inhibition of HIV-1 pseudovirus entry", "setting": "[1]; compound alone (data not shown)", "value": "Neither TAK-779 nor RANTES mediated consistent, high-level inhibition"}]}
{"compound": "anti-CD4 mAb Leu-3A (antibody)", "values": [{"measurement": "HIV-1 Env-mediated cell-cell fusion, RET assay", "setting": "[4]", "value": 500, "unit": "ng/mL"}]}
{"compound": "anti-CCR5 mAb 2D7 (antibody)", "values": [{"measurement": "IC50, HIV-1 reporter virus pseudotyped with JRFL envelope, U87-CD4-CCR5 cells", "setting": "[5]", "value": 8.8, "unit": "nM"}, {"measurement": "IC50, HIV-1 reporter virus pseudotyped with SF162 envelope, U87-CD4-CCR5 cells", "setting": "[5]", "value": 2.2, "unit": "nM"}, {"measurement": "IC90, HIV-1 reporter virus pseudotyped with JRFL envelope, U87-CD4-CCR5 cells", "setting": "[5]", "value": "> 200", "unit": "nM"}, {"measurement": "IC90, HIV-1 reporter virus pseudotyped with SF162 envelope, U87-CD4-CCR5 cells", "setting": "[5]", "value": 74, "unit": "nM"}]}
{"compound": "CCCCOCCOc1ccc(-c2ccc3c(c2)/C=C(/C(=O)Nc2ccc([S@@+]([O-])Cc4cncn4CCC)cc2)CCCN3CC(C)C)cc1.CS(=O)(=O)O", "note": "[TAK-652]", "values": [{"measurement": "safety and tolerability", "setting": "[6]", "value": "safe and well tolerated"}, {"measurement": "oral bioavailability", "setting": "[7]", "value": "orally bioavailable"}]}
